Details of data set [1]: species or system rats. The settings on record: rat, in vivo. How it is done: (§1) For In vivo studies, the levels of 4-hydroxytamoxifen and endoxifen were measured using LC-MS.
(§2) The tissues were mixed with TRIS HCl buffer (1 ml/mg) and homogenized at 6000 rpm for 3 minutes under ice. For lymph nodes, sonication (45% amplitude in pulse mode 1 sec on and 1 sec off for 2 minutes under ice) was used to homogenize the tissue. From this, 200 μl of tissue homogenate was mixed with 800 μl of acetonitrile to precipitate proteins (1:4 v/v). This was then vortexed for 1-2 minutes followed by sonication for 3 minutes. The plasma was then centrifuged at 10,000 rpm at 4° C. for 10 minutes. The supernatant was collected and evaporated to dryness under gentle stream of Argon. The residue was then reconstituted with 100 μl of Ammonium Formate, pH 3.5: Acetonitrile (7:3 v/v). This was vortexed for 1 minute followed by sonication for 2 minutes. The reconstituted mixture was centrifuged at 10,000 rpm for 10 minutes at 4° C. The supernatant was collected and 15 μl was injected into LC-MS to determine drug levels.

For data set [2] the following is noted: rat, in vivo. How it is done: as §1, §2
The nature of data set [3]: Organ distribution of tamoxifen PLGA formulations. The settings on record: end of the treatment. The data set is classed as in vivo. How it is done: (§3) For In vivo studies, the levels of Tamoxifen and two major metabolites 4-hydroxytamoxifen (4HT) and endoxifen (EDX) were measured using LC-MS. (Liquid chromatography-Mass spectroscopy)
(§4) The mammary gland and all the other vital organs (liver, spleen, kidney, lungs, heart, and uterus) were weighed and washed with PBS to remove blood. The tissues were mixed with TRIS HCl buffer (1 ml/mg) and homogenized at 6000 rpm for 3 minutes under ice. For lymph nodes, sonication (45% amplitude in pulse mode 1 sec on and 1 sec off for 2 minutes under ice) was used for homogenization. From this, 200 μl of tissue homogenate was mixed with 800 μl of acetonitrile (1:4 v/v) for protein precipitation. This was vortexed for 1-2 minutes followed by sonication for 3 minutes. The homogenate was centrifuged at 10,000 rpm at 4° C. for 10 minutes. The supernatant was collected and evaporated to dryness under gentle stream of Argon. The residue was reconstituted with 100 μl of ammonium formate (pH 3.5): acetonitrile (7:3 v/v). This was vortexed for 1 minute followed by sonication for 2 minutes. The reconstituted mixture was centrifuged at 10,000 rpm for 10 minutes at 4° C. The supernatant was gently removed and 15 μl was injected into LC-MS for quantification.

Data set [4] can be described thus: Plasma levels of tamoxifen and metabolites after intraductal injection of tamoxifen formulations (LC-MS). The data set is classed as in vivo. As for the experimental part: as §3
For determining drug levels in plasma, 100 μl of plasma was mixed with 400 μl of acetonitrile to precipitate proteins (1:4 v/v). This was then vortexed for 1-2 minutes followed by sonication for 3 minutes. The plasma was then centrifuged at 10,000 rpm at 4° C. for 10 minutes. The supernatant was collected and evaporated to dryness under gentle stream of Argon. The residue was then reconstituted with 100 μl of ammonium formate, (pH 3.5): acetonitrile (7:3 v/v). This was vortexed for 1 minute followed by sonication for 2 minutes. The reconstituted mixture was centrifuged at 10,000 rpm for 10 minutes at 4° C. The supernatant was collected and 15 μl was injected into LC-MS to determine drug levels.

A short description of data set [5]: Breast (mammary gland) concentration of tamoxifen and 4-hydroxytamoxifen after intraductal injection. The data set is classed as in vivo. As for the experimental part:
as §3, §4

Data set [6] can be described thus: Intraductal retention of Cy5.5 labelled PLGA formulations, whole body imaging. The data set is classed as in vivo, Female SD rats. How it is done:
Female SD rats were anesthetized using isoflurane and the hair around the nipple region was removed using hair removing cream. The keratin plug from the inguinal mammary gland (5th or 6th nipple from the head) was removed gently holding the nipple using tweezers and wiping with 70% alcohol.
For microspheres and nanoparticles, around 0.5 to 1.5 mg particles was dispersed in PBS containing 0.5% w/v Tween 80 and vortexed for 30-60 seconds. For In situ implants, 50-100 μl of gel containing an equivalent amount of Cy5.5 was used. After dilation of the nipple orifice, 50-100 μl of the formulation was injected intraductally into the inguinal mammary glands using 27-31 G needle under a surgical microscope.
The animals were imaged using Bruker in Vivo Xtreme II optical imaging system at predetermined time points (0 to 96 hours) to study the distribution of the carrier system in the breast. Following instrument settings were used: Excitation/Emission: 690/750 nm; Bin: 1×1 pixels; Exposure time: 20 seconds, f-stop: 1.2, FOV: 19. Fluorescence intensities were plotted against time by choosing a constant ROI around the injected mammary gland and subtracting the fluorescence intensity from the contralateral mammary gland.

A short description of data set [7]: Imaging of regional (axillary) lymph nodes after intraductal injection. The data set is classed as in vivo, female Sprague Dawley rats. How it is done: Intraductal injection was performed following the method described in the previous section. Regional lymph nodes (Axillary lymph node) were identified and dissected at 2 hours, 24 hours and 48 hours after intraductal injection. The lymph nodes were then imaged using whole body animal imaging system to determine the localization of formulation in the lymph nodes.

The mark [8] stands for this setting: breast (mammary gland), tamoxifen in breast.
Setting [9] is: intraductal retention, Cy 5.5 fluorescence intensity profile, 0 to 96 hours.

One may read the AUC as the area under the concentration-time curve, a measure of exposure. In general, Cmax refers to the peak of the concentration-time curve. As a reminder, the MRT is a mean duration of stay, worked out from the concentration-time curve. The term Tmax denotes the time at which the peak concentration occurs. A word on the half-life: it is the time needed for the level to fall by half in the phase considered.

For the compound “4-hydroxytamoxifen [Free 4-hydroxy tamoxifen]”, in data set [1], the “4 hydroxy tamoxifen in the tissues” value was “undetectable” and the “systemic exposure of endoxifen in all the tissues” value was “higher systemic exposure”. The “retention in the mammary gland, in words” value in data set [2] is on record as “very low levels”.

Regarding `CC/C(=C(\c1ccccc1)c1ccc(OCCN(C)C)cc1)c1ccccc1` [Free TMX, tamoxifen], the “uterine exposure of tamoxifen and metabolites” value in data set [3] was “resulted in uterine exposure”. Further, the “duration of detectable plasma tamoxifen” value in data set [4] was determined as 3 days. In addition, in data set [4] (Tamoxifen in plasma), the AUC is 116 ± 43.3 ng·h/mL, the AUMC worked out at 4546.37 ± 466.103 ng · hr^2/ml, the Cmax is 8.9 ± 1.55 ng/mL and the MRT is 47.7 ± 3.15 h. In data set [4] (Tamoxifen in plasma), the Tmax worked out at 0.3 h, the half-life is 19.5 ± 4.24 h and the ke was determined as 0.015 ± 0.002 h⁻¹. In data set [5], the “not retained in the mammary glands after” value is given as 3 days and the “retained in the mammary gland for only” value came out at 72 h. Further, in data set [5] (setting [8]), the AUC was 125000 ± 3690 ng·h/mL, the peak level (Cmax) was 4370 ± 67.7 ng/mL, the MRT was 26.5 ± 4.3 h and the time to peak (Tmax) is 12 h. Further, the half-life in data set [5] (setting [8]) was 14.87 ± 0.04 h. In data set [5] (tamoxifen in breast), the ke was determined as 0.020 ± 0.0005.

Cy 5.5: in data set [6] (breast ducts, non-invasive imaging), the “no fluorescence signals recorded after” value worked out at 4 h. Also, in data set [6] (setting [9]), the k amounted to 0.40 ± 0.03 h⁻¹ and the “t1/2 (retention half-life)” value was determined as 1.70 ± 0.16 h. Also, the “localization (fluorescence) in the axillary lymph nodes up to” value in data set [7] is at most 1 h.

The values above are taken from patent US20200121605A1, “METHODS AND COMPOSITIONS FOR LOCALIZED INTRADUCTAL DRUG DELIVERY TO THE BREAST AND REGIONAL LYMPH NODES” (South Dakota Board of Regents, priority 2018, published 2020).
